Laboratory results: article PMC6072100, “Exploring the links between peptoid antibacterial activity and toxicity” (MedChemComm, 2017)
Like-named read-outs stand apart in the source and are kept apart here. Square brackets hold non-standard residues; d marks the D form. Peptide text beside a SMILES is read from it. Gly(N-(CH2)6NH2) = NCCCCCCNCC(=O)O; Nspe = C[C@H](NCC(=O)O)c1ccccc1; NhArg = N=C(N)NCCCCNCC(=O)O; NPentylGly = CCCCCNCC(=O)O; Nphe = O=C(O)CNCc1ccccc1; Nlys = NCCCCNCC(=O)O

Legend:
Type in all cases: cell-based
[1] = system: Escherichia coli K-12 wild-type strain (W3110/ATCC27325); conditions: for MIC E. coli: lowest concentration completely inhibiting growth, 37 °C, 16 h, range 2–100 μM
Protocol: (§1) Escherichia coli K-12 wild-type strain (W3110/ATCC27325, F^–, λ^–, rpoS(Am), rph-1, Inv(rrnD-rrnE)), Pseudomonas aeruginosa PA01 (ATCC 15692) Staphylococcus aureus (3R7089 strain Oxford/ATCC9144) and Staphylococcus epidermidis (laboratory strain from clinical isolate) were selected for bacteriological studies as representative Gram-negative (E. coli and P. aeruginosa) and Gram-positive (S. aureus and S. epidermidis) species. Bacterial cultures were prepared by streaking bacterial strains onto LB agar plates with an inoculation loop and incubated overnight at 37 °C. A single colony was selected and placed in 5 mL of Iso-sensitest broth (Oxoid, ThermoScientific) and incubated with shaking for 16–18 h at 37 °C to provide liquid cultures for testing.
(§2) MIC values were obtained according to the protocol described by J. M. Andrews et al.[58] and were conducted in 96-well plates (Sarstedt). Bacteria were grown from overnight cultures in Iso-sensitest broth to an A650nm of 0.07 equivalent to a 0.5 MacFarland standard (240 μM BaCl2 in 0.18 M H2SO4). This culture was diluted ten-fold with Iso-sensitest broth before use. Peptoids were initially dissolved in DMSO (5 mM) and diluted further in Iso-sensitest broth to achieve a concentration range of 4–200 μM using 2-fold serial dilutions. 50 μl of inoculum and 50 μl of peptoid solution were added to each test well (final concentration range of 2–100 μM). Experiments were performed in triplicate. A positive control for bacterial growth contained only the inoculum and Iso-sensitest broth. Other controls contained the inoculum and serial dilutions of ampicillin (from 250 μg mL^–1 to 2 μg mL^–1), serial dilutions of DMSO and the inoculum to confirm no inhibitory effect on bacterial growth, and Iso-sensitest broth alone as a sterile control. […] Quantitative data was attained from absorbance values using a Biotek Synergy H4 plate reader.
(§3) Antibacterial MIC determination
(§4) Escherichia coli K-12 wild-type strain (W3110 / ATCC27325, F-, λ-, rpoS(Am), rph-1, Inv(rrnD-rrnE)), Pseudomonas aeruginosa PA01 (ATCC 15692) Staphylococcus aureus (3R7089 strain Oxford / ATCC9144) and Staphylococcus epidermidis (laboratory strain from clinical isolate) were selected for bacteriological studies as representative Gram-negative (E. coli and P. aeruginosa) and Gram-positive (S. aureus and S. epidermidis) species. Bacterial cultures were prepared by streaking bacterial strains onto LB agar plates with an inoculation loop and incubated overnight at 37 °C.
(§5) A single colony was selected and placed in 5 mL of Iso-sensitest broth (Oxoid, ThermoScientific) and incubated with shaking for 16-18 h at 37 °C to provide liquid […]
(§6) MIC values were obtained according to the protocol described by J. M. Andrews et al.1 and were conducted in 96-well plates (Sarstedt). Bacteria were grown from overnight cultures in Iso-sensitest broth to an A650nm of 0.07 equivalent to a 0.5 MacFarland standard (240 μM BaCl2 in 0.18 M H2SO4). This culture was diluted ten-fold with Iso-sensitest broth before use. Peptoids were initially dissolved in DMSO (5 mM) and diluted further in Iso-sensitest broth to achieve a concentration range of 4 – 200 µM using 2-fold serial dilutions. 50 μl of inoculum and 50 μl of peptoid solution were added to each test well (final concentration range of 2 – 100 µM). Experiments were performed in triplicate. A positive control for bacterial growth contained only the inoculum and Iso-sensitest broth. Other controls contained the inoculum and serial dilutions of ampicillin (from 250 µg/mL to 2 µg/mL), serial dilutions of DMSO and the inoculum to confirm no inhibitory effect on bacterial growth, and Iso-sensitest broth alone as a sterile control. […]
(§7) growth after incubation at 37 °C for 16 h with shaking. Quantitative data was attained from absorbance values using a Biotek Synergy H4 plate reader.

[2] = system: Pseudomonas aeruginosa PA01 (ATCC 15692)
Protocol: as §1, §2, §3, §4, §5, §6, §7

[3] = system: Staphylococcus aureus (3R7089 strain Oxford/ATCC9144)
Protocol: as §1, §2, §3, §4, §5, §6, §7

[4] = system: Staphylococcus epidermidis (laboratory strain from clinical isolate); conditions: 16 h
Protocol: as §1, §2, §3, §4, §5, §6, §7

[5] = lowest concentration completely inhibiting growth, 37 °C, 16 h, range 2–100 μM
[6] = lowest concentration completely inhibiting growth, 37 °C, range 2–100 μM

| Compound | MIC E. coli [1] | MIC P. aeruginosa [2, 5] | MIC S. aureus [3, 5] | MIC S. epidermidis [4, 6] | MIC P. aeruginosa ([2]; ATCC 15692, 16 h) | activity against E. coli (in words) [1] | activity against P. aeruginosa (in words) [2] | MIC S. epidermidis ([4]; laboratory strain from clinical isolate) | MIC S. aureus ([3]; ATCC9144, 16 h) |
| --- | --- | --- | --- | --- | --- | --- | --- | --- | --- |
| (NhArgNmfbNmfb)4 [Peptoid 36] | 13 µM | 13 µM | 2 µM | 2 µM |  |  |  |  |  |
| NCCCCNCC(=O)N(CC(=O)N(CC(=O)N(CCCCN)CC(=O)N(CC(=O)N(CC(=O)N(CCCCN)CC(=O)N(CC(=O)N(CC(=O)N(CCCCN)CC(=O)N(CC(=O)N(CC(N)=O)Cc1cccc(F)c1)Cc1cccc(F)c1)Cc1cccc(F)c1)Cc1cccc(F)c1)Cc1cccc(F)c1)Cc1cccc(F)c1)Cc1cccc(F)c1)Cc1cccc(F)c1 [Peptoid 24, (NLysNmfbNmfb)4] | 25 µM | 25 µM | 6 µM | 3 µM |  |  |  |  |  |
| NCCCCCCNCC(=O)N(CC(=O)N(CC(=O)N(CCCCCCN)CC(=O)N(CC(=O)N(CC(=O)N(CCCCCCN)CC(=O)N(CC(=O)N(CC(=O)N(CCCCCCN)CC(=O)N(CC(=O)N(CC(N)=O)Cc1ccccc1)Cc1ccccc1)Cc1ccccc1)Cc1ccccc1)Cc1ccccc1)Cc1ccccc1)Cc1ccccc1)Cc1ccccc1 [Peptoid 1, (NahNpheNphe)4] (H-[Gly(N-(CH2)6NH2)][Nphe][Nphe][Gly(N-(CH2)6NH2)][Nphe][Nphe][Gly(N-(CH2)6NH2)][Nphe][Nphe][Gly(N-(CH2)6NH2)][Nphe][Nphe]-NH2) | 13 µM |  |  |  | >100 µM |  |  |  |  |
| C[C@@H](c1ccccc1)N(CC(N)=O)C(=O)CN(C(=O)CN(CCCCN)C(=O)CN(Cc1ccc(F)cc1)C(=O)CN(Cc1ccc(F)cc1)C(=O)CN(CCCCN)C(=O)CN(C(=O)CN(C(=O)CNCCCCN)[C@@H](C)c1ccccc1)[C@@H](C)c1ccccc1)[C@@H](C)c1ccccc1 [Peptoid 29, (NLysNspeNspe)(NLysNpfbNpfb)(NLysNspeNspe)] | 13 µM | 25 µM | 3 µM | 2 µM |  |  |  |  |  |
| CCCCCNCC(=O)N(CC(=O)N(CC(=O)N(CCCCNC(=N)N)CC(=O)N(CC(=O)N(CC(=O)N(CCCCC)CC(=O)N(CC(=O)N(CC(=O)N(CCCCNC(=N)N)CC(=O)N(CC(=O)N(CC(N)=O)[C@@H](C)c1ccccc1)[C@@H](C)c1ccccc1)[C@@H](C)c1ccccc1)[C@@H](C)c1ccccc1)[C@@H](C)c1ccccc1)[C@@H](C)c1ccccc1)[C@@H](C)c1ccccc1)[C@@H](C)c1ccccc1 [Peptoid 40, [(NamyNspeNspe)(NhArgNspeNspe)]2] (H-[NPentylGly][Nspe][Nspe][NhArg][Nspe][Nspe][NPentylGly][Nspe][Nspe][NhArg][Nspe][Nspe]-NH2) | >100 µM | 100 µM | 3 µM | 6 µM | >100 µM | not active | not active |  |  |
| C[C@@H](c1ccccc1)N(CC(N)=O)C(=O)CN(Cc1ccc(F)cc1)C(=O)CN(CCCCN)C(=O)CN(C(=O)CN(Cc1ccc(F)cc1)C(=O)CN(CCCCN)C(=O)CN(C(=O)CN(Cc1ccc(F)cc1)C(=O)CN(CCCCN)C(=O)CN(C(=O)CN(Cc1ccc(F)cc1)C(=O)CNCCCCN)[C@@H](C)c1ccccc1)[C@@H](C)c1ccccc1)[C@@H](C)c1ccccc1 [Peptoid 26, (NLysNpfbNspe)4] | 13 µM | 13 µM | 2 µM | 2 µM |  |  |  |  |  |
| NCCCCNCC(=O)N(CC(=O)N(CC(=O)N(CCCCN)CC(=O)N(CC(=O)N(CC(=O)N(CCCCN)CC(=O)N(CC(=O)N(CC(N)=O)Cc1ccccc1)Cc1ccccc1)Cc1ccccc1)Cc1ccccc1)Cc1ccccc1)Cc1ccccc1 [Peptoid 5, (NLysNpheNphe)3] | 50 µM | 100 µM | 25 µM | 6 µM | >100 µM |  |  |  |  |
| NCCCCNCC(=O)N(CC(=O)N(CC(=O)N(CCCCN)CC(=O)N(CC(=O)N(CC(=O)N(CCCCN)CC(=O)N(CC(=O)N(CC(=O)N(CCCCN)CC(=O)N(CC(=O)N(CC(N)=O)Cc1ccccc1)Cc1ccccc1)Cc1ccccc1)Cc1ccccc1)Cc1ccccc1)Cc1ccccc1)Cc1ccccc1)Cc1ccccc1 [Peptoid 4, (NLysNpheNphe)4] (H-[Nlys][Nphe][Nphe][Nlys][Nphe][Nphe][Nlys][Nphe][Nphe][Nlys][Nphe][Nphe]-NH2) | 13 µM | 50 µM | 3 µM | 2 µM |  |  |  |  |  |
| C[C@@H](c1ccccc1)N(CC(N)=O)C(=O)CN(C(=O)CN(CCCCN)C(=O)CN(Cc1ccc(F)cc1)C(=O)CN(Cc1ccc(F)cc1)C(=O)CN(CCCCN)C(=O)CN(C(=O)CN(C(=O)CN(CCCCN)C(=O)CN(Cc1ccc(F)cc1)C(=O)CN(Cc1ccc(F)cc1)C(=O)CNCCCCN)[C@@H](C)c1ccccc1)[C@@H](C)c1ccccc1)[C@@H](C)c1ccccc1 [Peptoid 28, [(NLysNpfbNpfb)(NLysNspeNspe)]2] | 6 µM | 50 µM | 2 µM | 1 µM |  |  |  | < 1 µM |  |
| C[C@@H](c1ccccc1)N(CC(N)=O)C(=O)CN(C(=O)CN(CCCCCCN)C(=O)CN(C(=O)CN(C(=O)CNCCCCCCN)[C@@H](C)c1ccccc1)[C@@H](C)c1ccccc1)[C@@H](C)c1ccccc1 [Peptoid 12, (NahNspeNspe)2] | >100 µM |  |  |  | >100 µM |  |  |  | >100 µM |
| NCCCCCCNCC(=O)N(CC(=O)N(CC(=O)N(CCCCCCN)CC(=O)N(CC(=O)N(CC(=O)N(CCCCCCN)CC(=O)N(CC(=O)N(CC(N)=O)Cc1ccccc1)Cc1ccccc1)Cc1ccccc1)Cc1ccccc1)Cc1ccccc1)Cc1ccccc1 [Peptoid 2, (NahNpheNphe)3] (H-[Gly(N-(CH2)6NH2)][Nphe][Nphe][Gly(N-(CH2)6NH2)][Nphe][Nphe][Gly(N-(CH2)6NH2)][Nphe][Nphe]-NH2) | 50 µM |  |  |  | >100 µM |  |  |  |  |
| C[C@@H](c1ccccc1)N(CC(N)=O)C(=O)CN(C(=O)CN(CCCCCCN)C(=O)CN(C(=O)CN(C(=O)CN(CCCCCCN)C(=O)CN(C(=O)CN(C(=O)CNCCCCCCN)[C@@H](C)c1ccccc1)[C@@H](C)c1ccccc1)[C@@H](C)c1ccccc1)[C@@H](C)c1ccccc1)[C@@H](C)c1ccccc1 [Peptoid 11, (NahNspeNspe)3] (H-[Gly(N-(CH2)6NH2)][Nspe][Nspe][Gly(N-(CH2)6NH2)][Nspe][Nspe][Gly(N-(CH2)6NH2)][Nspe][Nspe]-NH2) | 25 µM |  |  |  | >100 µM |  |  |  |  |
